Where two headings read alike, the source gives them in different places.
Key:
[1] = test system: P. falciparum strain 3D7; assay: In vitro potency against P. falciparum strain 3D7 (SYBR green/DAPI); type: cell-based; conditions: Plasmodium falciparum
[2] = test system: Plasmodium falciparum strain Dd2; assay: In vitro potency against P. falciparum strain Dd2; type: cell-based; conditions: read-out: Potency (IC50; nM) Plasmodium spp. Pf Dd2
[3] = test system: P. knowlesi strain H1; assay: In vitro potency against P. knowlesi H1 in Rhesus blood cells (3H-hypoxanthine incorporation); type: cell-based; conditions: Plasmodium knowlesi, in Macaca mulatta, read-out: Potency (IC50; nM) Plasmodium spp. Pk H1
Protocol: Selected compounds were tested against P. knowlesi H1 strain parasites cultured in Rhesus blood cells as a surrogate for P. vivax infections using the method of Kocken and coworkers (Kocken, C. H., H. Ozwara, A. van der Wel, A. L. Beetsma, J. M. Mwenda, and A. W. Thomas. 2002. Plasmodium knowlesi provides a rapid in vitro and in vivo transfection system that enables double-crossover gene knockout studies. Infect Immun 70:655-660). Briefly, P. knowlesi were cultured in 2% Rhesus macaque erythrocytes (New England Primate Research Center) in RPMI culture media containing 10% Human O+ serum (Interstate Blood Bank). Schizont stage parasites were purified by floatation in 60% Percoll (GE life sciences) and allowed to reinvade to generate a synchronous population of ring stage parasites. Drug assays were performed by plating ring stage parasites at 0.5% parasitemia in triplicate, in RPMI containing 2.5 μg/ml hypoxanthine. Parasites were incubated for 24 hours with serially diluted test compounds. After 24 hours, thin smears were made to confirm that reinvasion had occurred, 0.5 μCi ^3H-labeled hypoxanthine (Perkin Elmer) were added to each well, and parasites were allowed to progress through S-phase to early schizonts. Cells were then harvested via glass filter plates and ^3H incorporation was measured by scintillation counting. Values were normalized to percentage of controls containing no drug, and IC50 values were generated (GraphPad Prism®).

[4] = Mammalian cytotoxicity, dermal fibroblast; type: cell-based; conditions: human, normal human dermal fibroblasts (Clonetics #CC-2509); read-out: Selectivity, Mammalian cytotoxicity (IC50; μM) Dermal Fibroblast
[5] = Mammalian cytotoxicity, kidney epithelial; type: cell-based; conditions: normal human renal proximal tubule cells; read-out: Selectivity, Mammalian cytotoxicity (IC50; μM) Kidney epithelial
[6] = Erythrocyte lysis; type: cell-based; conditions: erythrocytes, read-out: Selectivity, Mammalian cytotoxicity (IC50; μM) Eryth. Lysis
[7] = target: T1, hERG (Homo sapiens, UniProt Q12809); assay: hERG in Chinese hamster ovary cells; type: cell-based
T1 construct: expressed in transfected cells; host or cells: Chinese hamster ovary cells (from the earlier reading's assay name)
T1 sequence (Q12809 whole entry): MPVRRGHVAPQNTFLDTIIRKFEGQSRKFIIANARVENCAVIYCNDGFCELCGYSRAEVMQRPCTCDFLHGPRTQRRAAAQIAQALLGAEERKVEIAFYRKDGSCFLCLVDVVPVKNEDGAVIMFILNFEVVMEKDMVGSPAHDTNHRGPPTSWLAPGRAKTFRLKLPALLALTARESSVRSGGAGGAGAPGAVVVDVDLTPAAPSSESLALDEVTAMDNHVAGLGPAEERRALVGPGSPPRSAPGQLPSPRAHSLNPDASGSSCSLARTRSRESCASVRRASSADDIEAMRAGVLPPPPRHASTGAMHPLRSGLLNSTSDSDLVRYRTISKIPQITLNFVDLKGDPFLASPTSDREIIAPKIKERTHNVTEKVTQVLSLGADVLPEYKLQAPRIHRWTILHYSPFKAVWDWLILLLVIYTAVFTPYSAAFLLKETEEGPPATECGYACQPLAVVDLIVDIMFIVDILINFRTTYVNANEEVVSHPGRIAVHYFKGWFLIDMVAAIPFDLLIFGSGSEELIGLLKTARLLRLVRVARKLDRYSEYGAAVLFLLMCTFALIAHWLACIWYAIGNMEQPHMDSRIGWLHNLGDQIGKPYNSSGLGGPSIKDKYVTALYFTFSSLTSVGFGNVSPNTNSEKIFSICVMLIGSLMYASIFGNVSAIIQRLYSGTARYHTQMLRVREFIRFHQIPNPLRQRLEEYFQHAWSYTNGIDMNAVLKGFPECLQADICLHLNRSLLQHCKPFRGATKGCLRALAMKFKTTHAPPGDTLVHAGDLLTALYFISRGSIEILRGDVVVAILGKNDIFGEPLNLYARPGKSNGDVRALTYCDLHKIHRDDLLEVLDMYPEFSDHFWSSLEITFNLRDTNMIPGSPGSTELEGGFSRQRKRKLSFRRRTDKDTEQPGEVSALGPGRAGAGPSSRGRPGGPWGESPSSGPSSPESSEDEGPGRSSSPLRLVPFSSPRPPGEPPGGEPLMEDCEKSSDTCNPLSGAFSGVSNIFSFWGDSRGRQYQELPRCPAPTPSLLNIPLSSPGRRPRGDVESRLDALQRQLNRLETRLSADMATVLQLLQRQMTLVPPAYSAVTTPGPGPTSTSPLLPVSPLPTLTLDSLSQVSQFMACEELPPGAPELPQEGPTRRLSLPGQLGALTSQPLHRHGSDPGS

[8] = test system: P. berghei N-clone; assay: In vivo efficacy against P. berghei in mice (4-day suppressive test, oral); set-up: species or system P. berghei in Swiss Albino mice; conditions: for Average Day of Recrudescence: Study Day; for No. Cured: animals cured/group; for Recrudescence (no. animals/total): no parasites on Day 5 but later regressed; for % Suppression Day 5: vs untreated controls; for % of group without parasites: FIG. 3D; for cures: doses of 100-200 mg/kg/day
Source text: Because of ethical issues and costs, the acute P. berghei model in rodents is considered the “gold standard” for assessing anti-malarial efficacy in animal models. This model is adapted from Peters' “4-day suppressive test” (Peters, W. 1987. Chemotherapy and Drug Resistance in Malaria, p. 102-115, 2ed, vol. 1. Academic Press, Orlando, Fla.; Peters, W. 1975. The chemotherapy of rodent malaria, XXII. The value of drug-resistant strains of P. berghei in screening for blood schizontocidal activity. Ann Trop Med Parasitol 69:155-171). All studies were conducted in accordance with the Guide for the Care and Use of Laboratory Animals (National-Research-Council. 1996. Guide for the Care and Use of Laboratory Animals. National Academy Press, Washington, D.C.) and the PHS guidelines. Animals were maintained according to NIH guidelines and were allowed to acclimatize for 1 week prior to the commencement of studies. On Day 0, groups of 4-6-week old female Swiss Albino mice (n=5) were infected by tail vein injection with 0.2 ml heparinized blood diluted to contain 1×10^7 N-clone parasites. The aminoindole analogs were formulated in 1.6% lactic acid mixed sodium salt, 1% Tween 80, 9% ethanol and 20% Cerestar (hydroxypropyl β-cyclodextrin; Wacker Chimie) and were administered by oral gavage. […] Animals in the Control-group received vehicle alone. Dose concentration and frequency of dosing were based upon preliminary tolerability/exposure studies. On Day 4 post-infection (5th day of assay) blood was collected by tail-nick, and thin smear microscope slides were prepared and stained using Diff Quick®. Parasitized erythrocytes were counted and compared with the total number of erythrocytes per microscopic field to determine the percent parasitemia. A minimum of 350 erythrocytes were counted. Animals showing no detectable parasites on Day 4 were examined every 2-3 days to determine whether cure was sterile. Animals with no detectable parasites 28 days after cessation of dosing (Study Day 33) were considered cured.

[9] = test system: P. berghei ANKA strain; assay: In vitro potency against P. berghei ANKA; type: cell-based; conditions: Plasmodium berghei, read-out: Potency (IC50; nM) Plasmodium spp. Pb ANKA
[10] = test system: malaria; assay: In vivo efficacy in an animal (rodent) model of malaria (FIGS. 1, 2); conditions: 50 mg/kg dose; FIGS. 2A and 2B
[11] = read-out: Potency (IC50; nM) Plasmodium spp. Pf 3D7
[12] = reductions in parasitemia, read-out: IC50 values

Row | SMILES | IC50 [1, 11] | IC50 [1, 12] | IC50 [2] | IC50 [3] | IC50 [9] | IC50 [4] | IC50 [5] | IC50 [6] | Average Day of Recrudescence ([8]; 100 mg/kg/day b.i.d. p.o.) | No. Cured ([8]; 100 mg/kg/day b.i.d. p.o.) | Recrudescence (no. animals/total) ([8]; 100 mg/kg/day b.i.d. p.o.) | % Suppression Day 5 ([8]; 100 mg/kg/day b.i.d. p.o.) | No. Cured ([8]; 200 mg/kg/day b.i.d. p.o.) | % Suppression Day 5 ([8]; 200 mg/kg/day b.i.d. p.o.) | cures [8] | No. Cured ([8]; 50 mg/kg/day b.i.d. p.o.) | % Suppression Day 5 ([8]; 50 mg/kg/day b.i.d. p.o.) | also measured
1 | CCOc1ccc(F)cc1[C@]1(O)C(N)=Nc2ccc(Cl)cc21 (stereo in doubt) [Compound 266] | 18 nM | 1 to 100 nM | 58 nM |  | 342 nM | > 195 µM | > 195 µM | > 125 µM |  | 0/5 |  | 81% |  |  |  |  |  | 
2 | NC1=Nc2ccc(Cl)cc2[C@@]1(O)c1ccccc1 [Compound 2] | 665 nM | 100 to 500 nM | 1460 nM |  | 1360 nM | > 242 µM | > 242 µM | > 155 µM |  |  |  |  |  |  |  | 0/5 | 80% | in vivo efficacy (reducing parasitemia) [10]: efficacious for reducing parasitemia
3 | Cc1ccc2c(c1)C(O)(c1ccccc1)C(N)=N2 (stereo not shown) [Compound 37] | 183 nM | 1 to 100 nM | 455 nM | 318 nM |  | > 62.5 µM | > 62.5 µM | > 168 µM | 17 days | 3/5 | 2/5 | 100% | 5/5 | 100% | able to affect cures |  |  | 
4 | CC(C)C1(O)C(N)=Nc2ccc(Cl)cc21 (stereo not shown) [Compound 39] | 108 nM | 100 to 500 nM | 347 nM | 190 nM | 2990 nM | > 62.5 µM | > 62.5 µM | > 178 µM | 13 days | 0/5 | 3/5 | 99% |  |  |  | 0/5 | 98% | Average Day of Recrudescence ([8]; 50 mg/kg/day b.i.d. p.o.): 10 days; Recrudescence (no. animals/total) ([8]; 50 mg/kg/day b.i.d. p.o.): 3/5
5 | CC(C)Oc1ccccc1C1(O)C(N)=Nc2ccc(Cl)cc21 (stereo not shown) [Compound 146] | 22 nM | 1 to 100 nM | 37 nM | 90 nM |  | > 188 µM | > 188 µM | > 120 µM | 6 days | 0/5) | 1/5 | 99% |  |  |  |  |  | Selectivity, hERG (μM) CHO [7]: 19 µM

Further lines, with some results ahead:

Row | IC50 [1, 11] | IC50 [1, 12] | IC50 [2] | IC50 [3] | IC50 [9] | SMILES | IC50 [4] | IC50 [5] | IC50 [6] | Average Day of Recrudescence ([8]; 100 mg/kg/day b.i.d. p.o.) | No. Cured ([8]; 100 mg/kg/day b.i.d. p.o.) | Recrudescence (no. animals/total) ([8]; 100 mg/kg/day b.i.d. p.o.) | % Suppression Day 5 ([8]; 100 mg/kg/day b.i.d. p.o.) | No. Cured ([8]; 200 mg/kg/day b.i.d. p.o.) | % Suppression Day 5 ([8]; 200 mg/kg/day b.i.d. p.o.) | cures [8] | No. Cured ([8]; 50 mg/kg/day b.i.d. p.o.) | % Suppression Day 5 ([8]; 50 mg/kg/day b.i.d. p.o.) | also measured
6 | 23 nM | 1 to 100 nM | 49 nM | 38 nM |  | CCOc1ccc(F)cc1C1(O)C(N)=Nc2ccc(Cl)cc21 (racemic) [Compound 142, 2-amino-5-chloro-3-(2-ethoxy-5-fluorophenyl)-3H-indol-3-ol] | > 195 µM | > 195 µM | > 125 µM | 11 days | 0/5 | 1/5 | 99% | 3/5 | 99% | able to affect cures |  |  | Selectivity, hERG (μM) CHO [7]: 21 µM; Average Day of Recrudescence ([8]; 200 mg/kg/day b.i.d. p.o.): 13 days; Recrudescence (no. animals/total) ([8]; 200 mg/kg/day b.i.d. p.o.): 1/5; % of group without parasites ([8]; day 5, 100/mg/kg/day): 20%; % of group without parasites ([8]; day 5, 200/mg/kg/day): 80%; % of group without parasites ([8]; day 30, 200/mg/kg/day): 60%
7 | 313 nM | 100 to 500 nM | 675 nM |  | 1690 nM | NC1=Nc2ccc(Cl)cc2[C@]1(O)c1ccccc1 [Compound 3] | > 242 µM | > 242 µM | > 155 µM |  | 5/5 |  | 100% |  |  | able to affect cures | 2/5 | 100% | Average Day of Recrudescence ([8]; 50 mg/kg/day b.i.d. p.o.): 12 days; Recrudescence (no. animals/total) ([8]; 50 mg/kg/day b.i.d. p.o.): 3/5; in vivo efficacy (reducing parasitemia) [10]: efficacious for reducing parasitemia; in vivo efficacy (treatment of malaria) [10]: effectively treated malaria
8 | 21 nM | 1 to 100 nM | 81 nM |  |  | COc1cc(C2(O)C(N)=Nc3ccc(Cl)cc32)c(OC)cn1 (stereo not shown) [Compound 202] | > 195 µM | > 195 µM | > 125 µM |  | 0/5 |  | 95% | 0/5 | 98% |  |  |  | Average Day of Recrudescence ([8]; 200 mg/kg/day b.i.d. p.o.): 17 days; Recrudescence (no. animals/total) ([8]; 200 mg/kg/day b.i.d. p.o.): 2/5
